Values joined by “and” are separate entries in the source; they are usually repeats but may differ in a detail not shown here. Identical values can stand only once.
Tested on: HeLa-AD8 Env / CEM-CCR5 cell fusion, luciferase
Experiment: HIV-1 AD8 envelope cell-cell fusion blockers – cherry-pick, dose response (AID 652062)

`O=C(C[C@H]1C[C@H]2c3cc(NC(=O)c4ccc5c(c4)OCO5)ccc3O[C@H]2[C@H](CO)O1)NCc1ccc(Oc2ccccc2)cc1` gave an AC50 of 15.1 µM.

`COC(=O)C1(C(=O)OC)C[C@H](c2ccc(OC)cc2)N(Cc2ccccc2OC)[C@@H]1c1cccs1` was tested, and the AC50 was 2.49 µM and 11.3 µM.

For `C[C@H](CO)N1C[C@H](C)[C@H](CN(C)S(=O)(=O)c2ccccc2)Oc2ncc(/C=C/c3ccccc3)cc2C1=O`, the AC50 was 23.8 µM and 3.07 µM.

— PubChem BioAssay AID652062 (Broad Institute, 2013)
